In patent US8592174B2, “Peptidase substrates” (bioMérieux, S.A., priority 2009, dated 2013):
Each block holds one compound with its values, some of them ahead of it.

Key:
Assay in all cases: Peptidase detection on Columbia medium (Example 2)
Format in all cases: cell-based
Conditions in all cases: 24 h 37° C.
[1] = tested on: Escherichia coli NCTC 10 418; parameters: key to Growth: NG: No growth; 0.5: weak growth; 1: moderate growth; 2: good growth
Experimental: (§1) The 6 media were distributed into Petri dishes 90 mm in diameter, in a proportion of 20 ml per dish.
(§2) Seventeen strains of microorganisms stemming from collections and belonging to various species of bacteria and yeasts are inoculated in spots of approximately 10 000 colony-forming units.
(§3) The media are incubated for 24 hours at 37° C., and then the colonies formed are examined visually, with or without the addition of acid and under a UV lamp at 365 nm.

[2] = tested on: Serratia marcescens NCTC 10 211; parameters: key to Growth: NG: No growth; 0.5: weak growth; 1: moderate growth; 2: good growth
Experimental: as §1, §2, §3

[3] = tested on: Pseudomonas aeruginosa NCTC 10 662; parameters: key to Growth: NG: No growth; 0.5: weak growth; 1: moderate growth; 2: good growth; key to Color: —: no color
Experimental: as §1, §2, §3

[4] = tested on: Yersinia enterocolitica NCTC 11 176; parameters: key to Growth: NG: No growth; 0.5: weak growth; 1: moderate growth; 2: good growth; key to Color: —: no color
[5] = tested on: Salmonella typhimurium NCTC 74; parameters: key to Growth: NG: No growth; 0.5: weak growth; 1: moderate growth; 2: good growth; key to Color: —: no color
Experimental: as §1, §2, §3

[6] = tested on: Enterobacter cloacae NCTC 11 936; parameters: key to Growth: NG: No growth; 0.5: weak growth; 1: moderate growth; 2: good growth
Experimental: as §1, §2, §3

[7] = tested on: Providencia rettgeri NCTC 7 475; parameters: key to Growth: NG: No growth; 0.5: weak growth; 1: moderate growth; 2: good growth; key to Color: —: no color
[8] = tested on: Bacillus subtilis NCTC 9 372; parameters: key to Growth: NG: No growth; 0.5: weak growth; 1: moderate growth; 2: good growth; key to Fluo. / Color / Color post-acid.: —: no color
Experimental: as §1, §2, §3

[9] = tested on: Enterococcus faecalis NCTC 775; parameters: key to Growth: NG: No growth; 0.5: weak growth; 1: moderate growth; 2: good growth; key to Fluo. / Color / Color post-acid.: —: no color
Experimental: as §1, §2, §3

[10] = tested on: Enterococcus faecium NCTC 7 171; parameters: key to Growth: NG: No growth; 0.5: weak growth; 1: moderate growth; 2: good growth; key to Fluo. / Color / Color post-acid.: —: no color
Experimental: as §1, §2, §3

[11] = tested on: Staphylococcus epidermidis NCTC 11 047; parameters: key to Growth: NG: No growth; 0.5: weak growth; 1: moderate growth; 2: good growth; key to Fluo. / Color / Color post-acid.: —: no color
Experimental: as §1, §2, §3

[12] = tested on: Staphylococcus aureus NCTC 6 571; parameters: key to Growth: NG: No growth; 0.5: weak growth; 1: moderate growth; 2: good growth; key to Fluo. / Color / Color post-acid.: —: no color
Experimental: as §1, §2, §3

[13] = tested on: Staphylococcus aureus NCTC 11 939; parameters: key to Growth: NG: No growth; 0.5: weak growth; 1: moderate growth; 2: good growth; key to Fluo. / Color / Color post-acid.: —: no color
[14] = tested on: Streptococcus pyogenes NCTC 8 306; parameters: key to Growth: NG: No growth; 0.5: weak growth; 1: moderate growth; 2: good growth; key to Fluo. / Color / Color post-acid.: —: no color
Experimental: as §1, §2, §3

[15] = tested on: Listeria monocytogenes NCTC 11 994; parameters: key to Growth: NG: No growth; 0.5: weak growth; 1: moderate growth; 2: good growth; key to Fluo. / Color / Color post-acid.: —: no color
Experimental: as §1, §2, §3

[16] = tested on: Candida albicans ATCC 90 028; parameters: key to Growth: NG: No growth; 0.5: weak growth; 1: moderate growth; 2: good growth; key to Fluo. / Color / Color post-acid.: —: no color
Experimental: as §1, §2, §3

[17] = tested on: Candida glabrata NCPF 3 943; parameters: key to Growth: NG: No growth; 0.5: weak growth; 1: moderate growth; 2: good growth; key to Fluo. / Color / Color post-acid.: —: no color
Experimental: as §1, §2, §3

- Color ([2]; 80 mg in 400 ml Columbia): Pale orange
- Growth ([2]; 80 mg in 400 ml Columbia): 2
- Color ([3]; 80 mg in 400 ml Columbia): Pale orange
- Growth ([3]; 80 mg in 400 ml Columbia): 2
- Color ([5]; 80 mg in 400 ml Columbia): —
- Growth ([5]; 80 mg in 400 ml Columbia): 2
- Color ([6]; 80 mg in 400 ml Columbia): Pale orange
- Growth ([6]; 80 mg in 400 ml Columbia): 2
- Color ([8]; 80 mg in 400 ml Columbia): Orange
- Growth ([8]; 80 mg in 400 ml Columbia): 2
- Color ([9]; 80 mg in 400 ml Columbia): —
- Growth ([9]; 80 mg in 400 ml Columbia): 2
- Color ([10]; 80 mg in 400 ml Columbia): —
- Growth ([10]; 80 mg in 400 ml Columbia): 2
- Color ([14]; 80 mg in 400 ml Columbia): —
- Color ([15]; 80 mg in 400 ml Columbia): —
- Growth ([15]; 80 mg in 400 ml Columbia): 2
SMILES: C[n+]1ccc(C=Cc2ccc(NC(=O)[C@@H](N)CC(N)=O)cc2)c2ccccc21.O=C(O)C(F)(F)F.O=C([O-])C(F)(F)F [Asn-ASQM^+, L-asparaginyl-4-(4′-amidostyryl)-N-methylquinolinium-bis-TFA]
- Color ([1]; 80 mg in 400 ml Columbia): Pale orange
- Growth ([1]; 80 mg in 400 ml Columbia): 2
- Color ([4]; 80 mg in 400 ml Columbia): —
- Growth ([4]; 80 mg in 400 ml Columbia): 2
- Color ([7]; 80 mg in 400 ml Columbia): —
- Growth ([7]; 80 mg in 400 ml Columbia): 2
- Color ([11]; 80 mg in 400 ml Columbia): —
- Color ([12]; 80 mg in 400 ml Columbia): —
- Growth ([12]; 80 mg in 400 ml Columbia): 0.5
- Color ([13]; 80 mg in 400 ml Columbia): Orange
- Growth ([13]; 80 mg in 400 ml Columbia): 2
- Color ([16]; 80 mg in 400 ml Columbia): —
- Growth ([16]; 80 mg in 400 ml Columbia): 2
- Color ([17]; 80 mg in 400 ml Columbia): —
- Growth ([17]; 80 mg in 400 ml Columbia): 0.5

- Color ([2]; 40 mg in 400 ml Columbia): Orange
- Growth ([2]; 40 mg in 400 ml Columbia): 2
- Color ([3]; 40 mg in 400 ml Columbia): —
- Growth ([3]; 40 mg in 400 ml Columbia): 2
- Growth ([5]; 40 mg in 400 ml Columbia): 2
- Color ([6]; 40 mg in 400 ml Columbia): Orange
- Growth ([6]; 40 mg in 400 ml Columbia): 2
- Color ([8]; 40 mg in 400 ml Columbia): —
- Growth ([8]; 40 mg in 400 ml Columbia): 1
- Growth ([9]; 40 mg in 400 ml Columbia): 1
- Color ([10]; 40 mg in 400 ml Columbia): —
- Growth ([10]; 40 mg in 400 ml Columbia): 1
- Color ([14]; 40 mg in 400 ml Columbia): —
- Growth ([14]; 40 mg in 400 ml Columbia): NG
- Color ([15]; 40 mg in 400 ml Columbia): —
- Growth ([15]; 40 mg in 400 ml Columbia): 1
SMILES: C[n+]1ccc(C=Cc2ccc(NC(=O)[C@@H](N)Cc3ccc(O)cc3)cc2)c2ccccc21.Cl.[Cl-] [Tyr-ASQM^+, L-tyrosyl-4-(4′-amidostyryl)-N-methylquinolinium dihydrochloride]
- Color ([1]; 40 mg in 400 ml Columbia): Orange
- Growth ([1]; 40 mg in 400 ml Columbia): 2
- Growth ([4]; 40 mg in 400 ml Columbia): 2
- Growth ([7]; 40 mg in 400 ml Columbia): 2
- Color ([11]; 40 mg in 400 ml Columbia): —
- Growth ([11]; 40 mg in 400 ml Columbia): 0.5
- Color ([12]; 40 mg in 400 ml Columbia): —
- Growth ([12]; 40 mg in 400 ml Columbia): NG
- Color ([13]; 40 mg in 400 ml Columbia): —
- Growth ([13]; 40 mg in 400 ml Columbia): NG
- Color ([16]; 40 mg in 400 ml Columbia): —
- Growth ([16]; 40 mg in 400 ml Columbia): 0.5
- Color ([17]; 40 mg in 400 ml Columbia): —
- Growth ([17]; 40 mg in 400 ml Columbia): NG
